Two compounds from patent publication US20240255464A1 (priority 2021, published 2024) can be followed below.

Several values for one entry are separate records, joined by “and”; a condition that tells them apart may be missing. Identical values can stand only once. Like-named read-outs stand apart in the source and are kept apart here.

The experiment concerns HL-1 cells. The class given is cell-based.
The mark [1] stands for this setting: HL-1 cells, 100 nM nifedipine in Tyrode's solution, 60 s.
Where [2] appears, read: HL-1 cells, 100 nM nifedipine in Tyrode's solution, 120 s.

In the case of `COC(=O)C1=C(C)NC(C)=C(C(=O)OC)C1c1ccccc1[N+](=O)[O-]` [Nifedipine, nifedipine], under setting [1], the APD50 came out at 106.0 ms, the APD90 turned out to be 172.9 ms, the Amplitude is 102.9 mV and the “Refractory Period” value is reported as 964.8 ms. In addition, under setting [2], the APD50 is 59.1 ms, the APD90 is 90.1 ms, the Amplitude worked out at 88.9 mV and the “Refractory Period” value was found to be 1022.3 ms.

As to `NC1=N[C@H](O)[C@H]2[C@H]3O[C@]4(O)O[C@@H]([C@@H](O)[C@@]2(N1)[C@@H]4O)[C@]3(O)CO` [TTX, tetrodotoxin], the APD50 was 81.2 ms and 65.5 ms; the APD90 was 166.6 ms and 141.8 ms; the Amplitude is 113.4 mV and 91.9 mV; the “Refractory Period” value is 948.4 ms and 958.6 ms. Besides, the “effect on action potential amplitude” value is “lowers the amplitude”, the “effect on action potential duration at 50% or 90% repolarization” value is given as “reduces the action potential duration”, the “effect on repolarization duration” value was “shortening the repolarization duration” and the “effect on spike amplitude” value is reported as “reducing the spike amplitude”. Besides, the “reversibility of the effect” value was “reversible”.
